Laboratory results taken from patent US20050250945A1, “Triazine compounds as inhibitors of bacterial type III protein secretion systems” (priority 2004, published 2005).

Tests used:
Type in all cases: cell-based
[1] = system: SPI1 type III protein secretion system (SopE‘-’Bla secretion); assay: Primary assay: Type III protein secretion of the chimeric SopE‘-’Bla polypeptide (nitrocefin hydrolysis); conditions: Salmonella enterica, read-out: SopE IC50(uM)
Description: Primary assay: Type III protein secretion of the chimeric SopE‘-’Bla polypeptide by Salmonella enterica. This procedure is a cell-based assay that measures the type III-dependent secretion by Salmonella enterica of a plasmid-encoded chimeric polypeptide whose synthesis can be regulated, and which is endowed with an enzymatic activity that can be monitored colorimetrically by hydrolysis of a substrate that is unable to penetrate into the bacterial cytoplasm within the time constraints of the reaction. Thus, the colorimetric reaction is not influenced by SopE‘-’Bla polypeptide in the bacterial cytoplasm. Instead, it effectively measures the amount of polypeptide that has been secreted from the S. enterica cytoplasm to the extracellular medium via type III system protein secretion.
The SopE‘-’Bla recombinant polypeptide consists of two functionally distinct domains spliced together. The N-terminus domain is encoded by a polynucleotide region specifying the signal for type III secretion of the SopE polypeptide of S. enterica, an effector of the SPI1 type III protein secretion system. The C-terminus domain of SopE‘-’Bla consists of a 263 amino acid peptide sequence that corresponds to the TEM-1 β-lactamase expressed by plasmid pBR322 but without its N-terminal signal sequence. The TEM-1 β-lactamase part of the SopE‘-’Bla chimeric polypeptide is used as a reporter enzyme. It is capable of hydrolyzing nitrocefin resulting in a product whose accumulation can be monitored by colorimetric detection. The secretion of the SopE‘—’Bla chimeric polypeptide from the cytoplasm to the extracellular medium is dependent on type III protein secretion.
For this procedure, cells grown under conditions known to favor a functional SPI1 secretion system are induced for expression of the SopE‘-’Bla protein and grown either in the presence or in the absence of putative inhibitors for determined time. Nitrocefin is then added to the various cultures and its hydrolysis are used for quantitation. An inhibitor of Type III protein secretion is generally a compound that reduces the signal of the enzymatic reaction by decreasing the amount of SopE‘-’Bla secreted into the extracellular medium.

[2] = system: type III protein secretion system of P. aeruginosa PA103 (ExoU secretion); assay: Tertiary assay: Type III-dependent secretion of ExoU by P. aeruginosa PA103 (SDS-PAGE band quantitation); conditions: Pseudomonas aeruginosa; P. aeruginosa PA103, ExoU secreted into extracellular medium
Description: Tertiary assay: Inhibition of Type III protein secretion of effectors from a Pseudomonas aeruginosa system. Type III protein secretion is used by P. aeruginosa to secrete several essential virulence determinants. One effector of the type III protein secretion system of P. aeruginosa PA103 is the virulence determinants ExoU.
The amount of Type III-dependent secretion of ExoU by P. aeruginosa PA103 can be determined in a cell-based assay by quantification of the 73.9 kDa ExoU protein secreted into the extracellular medium. Such quantitation can be achieved by growing strain PA103 in a deferrated medium in the presence of nitrilotriacetic acid (an inducer of Type III protein secretion in P. aeruginosa) and either in the presence or absence of putative inhibitors. After a prolonged growth period, the cells are sedimented and the supernatants concentrated by ammonium sulfate precipitation. The proteins in the resuspended pellets are separated by electrophoresis on SDS-polyacrylamide gels. After staining gels with Colloidal Blue™, the 73.9 kDa ExoU band is quantitated by scanning through an imager. The effects of inhibitors on the intensity of the ExoU band may be measured relative to that of untreated controls.

[3] = system: SPI1 type III protein secretion system (SipB secretion); assay: Secondary assay: Type III-dependent protein secretion of the SipB polypeptide (immunoblot); conditions: Salmonella enterica, read-out: SipB IC50(uM)
Protocol: Secondary assay: Type III-dependent protein secretion of the SipB polypeptide by S. enterica. The SipB protein of S. enterica is another effector of the SPI1 type III protein secretion system from S. enterica. In this cell-based procedure, the Type III-dependent secretion of SipB from the bacterial cytoplasm to the extracellular medium was measured through its reactivity with a cognate mouse monoclonal.
Salmonella enterica cells growing either in the presence or in the absence of inhibitors are induced for the production of SipB. Following an established period of growth the cells are sedimented and the amount of SipB present in the supernatant is quantified with a scanning imager following application of immunoblot techniques. Detection may employ an anti-SipB mouse monoclonal antibody (e.g., obtained from Jorge Galan, SUNY at Stony Brook, N.Y.) followed by treatment with commercially available sheep anti-mouse polyclonal antibody conjugated with horseradish peroxidase. Thereafter the membrane is treated with a peroxidase chemiluminescent substrate and exposed to film for an appropriate exposure time. Inhibition may be measured relative to untreated controls.

Row | Compound | IC50 [1] [µM] | IC50 [2] [µM] | IC50 [3] [µM]
1 | O=C(O)[C@H](CSCc1ccccc1)Nc1nc(Nc2ccc(C(F)(F)F)cc2)nc(-c2ccc(O)cc2)n1 [Compound 31, (R)-3-Benzylsulfanyl-2-[4-(4-hydroxyphenyl)-6-(4-trifluoromethylphenylamino)-[1,3,5]triazin-2-yl-amino]propionic acid] | 9.1 |  | 
2 | O=C(O)[C@H](CSCc1ccccc1)Nc1nc(Nc2ccc(C(F)(F)F)cc2)nc(-c2ccc(Oc3ccccc3)cc2)n1 [Compound 12, (R)-3-Benzylsulfanyl-2-[4-(4-phenoxyphenyl)-6-(4-trifluoromethylphenylamino)[1,3,5]triazin-2-yl-amino]propionic acid] | 1.1 | > 100 | 
3 | CN(C)c1ccc(-c2nc(Nc3ccc(C(F)(F)F)cc3)nc(N[C@@H](CSCc3ccccc3)C(=O)O)n2)cc1 [Compound 30, (R)-3-Benzylsulfanyl-2-[4-(4-dimethylaminophenyl)-6-(4-trifluoromethyl-phenylamino)[1,3,5)triazin-2-yl-amino]propionic acid] | 8.5 |  | 
4 | O=C(O)[C@H](CSCc1ccccc1)Nc1nc(Nc2ccc(C(F)(F)F)cc2)nc(-c2ccccc2F)n1 [Compound 28, (R)-3-Benzylsulfanyl-2-[4-(2-fluorophenyl)-6-(4-trifluoromethylphenylamino)-[1,3,5]triazin-2-yl-amino]propionic acid] | 6.7 | > 100 | 
5 | O=C(O)[C@H](CSCc1ccccc1)Nc1nc(Nc2ccc(C(F)(F)F)cc2)nc(-c2ccc(Cl)cc2)n1 [Compound 15, (R)-3-Benzylsulfanyl-2-[4-(4-chlorophenyl)-6-(4-trifluoromethylphenylamino)-[1,3,5]triazin-2-yl-amino]propionic acid] | 1.9 |  | 
6 | O=C(O)[C@H](CSCc1ccccc1)Nc1nc(Nc2ccc(C(F)(F)F)cc2)nc(-c2cc(F)cc(F)c2)n1 [Compound 29, (R)-3-Benzylsulfanyl-2-[4-(3,5-difluorophenyl)-6-(4-trifluoromethylphenylamino)[1,3,5]triazin-2-yl-amino]propionic acid] | 7.4 |  | 
7 | O=C(O)C(Cc1ccc(Cl)cc1)Nc1nc(Nc2ccc(C(F)(F)F)cc2)nc(-c2ccc(F)cc2)n1 (stereo not drawn) [Compound 27, 3-(4-Chlorophenyl)-2-[4-(4-fluorophenyl)-6-(4-trifluoromethylphenylamino)-[1,3,5]triazin-2-yl-amino]propionic acid] | 6.1 |  | > 100
8 | O=C(O)[C@H](CSCc1ccccc1)Nc1nc(Nc2ccc(C(F)(F)F)cc2)nc(-c2ccc(OC(F)(F)F)cc2)n1 [Compound 19, (R)-3-Benzylsulfanyl-2-[4-(4-trifluoromethoxyphenyl)-6-(4-trifluoromethyl-phenylamino)[1,3,5]triazin-2-yl-amino]propionic acid] | 3.2 |  | 
9 | O=C(O)[C@H](CSCc1ccccc1)Nc1nc(Nc2ccc(C(F)(F)F)cc2)nc(-c2cccc3ccccc23)n1 [Compound 18, (R)-3-Benzylsulfanyl-2-[4-naphthalen-1-yl-6-(4-trifluoromethylphenylamino)-[1,3,5]triazin-2-yl-amino]propionic acid] | 2.5 |  | 
10 | O=C(O)[C@H](CSCc1ccccc1)Nc1nc(Nc2ccc(C(F)(F)F)cc2)nc(-c2ccccc2Oc2ccccc2)n1 [Compound 17, (R)-3-Benzylsulfanyl-2-[4-(2-phenoxyphenyl)-6-(4-trifluoromethylphenylamino)[1,3,5]triazin-2-yl-amino]propionic acid] | 2.5 |  | 
11 | O=C(O)[C@H](CSCc1ccccc1)Nc1nc(Nc2ccc(C(F)(F)F)cc2)nc(-c2ccc3ccccc3c2)n1 [Compound 20, (R)-3-Benzylsulfanyl-2-[4-naphthalen-2-yl-6-(4-trifluoromethylphenylamino)-[1,3,5]triazin-2-yl-amino]propionic acid] | 3.3 | > 100 | 
12 | O=C(O)[C@H](CS(=O)(=O)Cc1ccccc1)Nc1nc(-c2ccc(F)cc2)nc(N2CCc3ccccc3C2)n1 [Compound 11, (R)-2-[4-(3,4-Dihydro-1H-isoquinolin-2-yl)-6-(4-fluorophenyl)[1,3,5]triazin-2yl-amino]-3-phenyl-methanesulfonyl propionic acid] | 86 |  | > 100
13 | O=C(O)[C@H](CSCc1ccccc1)Nc1nc(Nc2ccc(C(F)(F)F)cc2)nc(-c2ccccc2)n1 [Compound 24, (R)-3-Benzylsulfanyl-2-[4-phenyl-6-(4-trifluoromethylphenylamino)[1,3,5]triazin-2-yl-amino]propionic acid] | 4.4 |  | 
14 | O=C(O)[C@H](C[S+]([O-])Cc1ccccc1)Nc1nc(-c2ccc(F)cc2)nc(N2CCc3ccccc3C2)n1 (stereo partly drawn) [Compound 9, (R)-2-[4-(3,4-Dihydro-1H-isoquinolin-2-yl)-6-(4-fluorophenyl)[1,3,5]triazin-2-yl-amino]-3-phenylmethanesulfinylpropionic acid] | 42.6 |  | > 100
15 | CC(C)Oc1ccc(-c2nc(Nc3ccc(C(F)(F)F)cc3)nc(N[C@@H](CSCc3ccccc3)C(=O)O)n2)cc1 [Compound 22, (R)-3-Benzylsulfanyl-2-[4-(4-isopropoxyphenyl)-6-(4-trifluoromethyl-phenylamino)[1,3,5]triazin-2-yl-amino]propionic acid] | 4.1 |  | 
16 | O=C(O)[C@H](CSCc1ccccc1)Nc1nc(Nc2ccc(C(F)(F)F)cc2)nc(-c2cccc(C(F)(F)F)c2)n1 [Compound 21, (R)-3-Benzylsulfanyl-2-[4-(3-trifluoromethylphenyl)-6-(4-trifluoromethyl-phenylamino)[1,3,5]triazin-2-yl-amino]propionic acid] | 4.1 |  | 
17 | O=C(O)[C@H](CSCc1ccccc1)Nc1nc(Nc2ccc(C(F)(F)F)cc2)nc(-c2cccc(F)c2)n1 [Compound 23, (R)-3-Benzylsulfanyl-2-[4-(3-fluorophenyl)-6-(4-trifluoromethylphenylamino)-[1,3,5]triazin-2-yl-amino]propionic acid] | 4.2 |  | 
18 | O=C(O)[C@H](CSCc1ccccc1)Nc1nc(Nc2ccc(C(F)(F)F)cc2)nc(-c2ccc(Br)cc2)n1 [Compound 14, (R)-3-Benzylsulfanyl-2-[4-(4-bromophenyl)-6-(4-trifluoromethylphenylamino)-[1,3,5]triazin-2-yl-amino]propionic acid] | 1.7 |  | 
19 | O=C(O)[C@H](CSCc1ccccc1)Nc1nc(Nc2ccc(C(F)(F)F)cc2)nc(-c2ccc(F)cc2)n1 [Compound 25, (R)-3-Benzylsulfanyl-2-[4-(4-fluorophenyl)-6-(4-trifluoromethylphenylamino)-[1,3,5]triazin-2-yl-amino]propionic acid] | 4.7 |  | 
20 | O=C(O)[C@H](CSCc1ccccc1)Nc1nc(Nc2ccc(C(F)(F)F)cc2)nc(-c2ccc(C(F)(F)F)cc2)n1 [Compound 16, (R)-3-Benzylsulfanyl-2-[4-(4-trifluoromethylphenyl)-6-(4-trifluoromethyl-phenylamino)[1,3,5]triazin-2-yl-amino]propionic acid] | 2 |  | 
21 | O=C(O)[C@H](CSCc1ccccc1)Nc1nc(Nc2ccc(C(F)(F)F)cc2)nc(-c2ccc(Cl)c(Cl)c2)n1 [Compound 13, (R)-3-Benzylsulfanyl-2-[4-(3,4-dichlorophenyl)-6-(4-trifluoromethylphenylamino)-[1,3,5]triazin-2-yl-amino]propionic acid] | 1.25 |  | 
